Results reported in PMC6078987, “Molecular insights into antibiotic resistance - how a binding protein traps albicidin” (Nature Communications, 2018).
“And” between values parts separate entries of the source, which are not always exact repeats. Equal entries are not always repeated.

What was measured:
[1] = target: T1, GyrBA59 (Escherichia coli, UniProt P0AES4+P0AES6); assay: DNA cleavage assay; type: biochemical, E. coli; conditions: 5 nM – 5120 nM albicidin, pBR322, 1.4 mM ATP
T1 construct: combining the full-length GyrB and a C-terminally truncated GyrA segment (59 kDa); a C-terminally truncated GyrA segment (59 kDa); 6x His (TEV-cleavable) (N, cleaved yes); made in house; host or cells: E. coli BL21 DE3, pET-28a(+)
Procedure: E. coli DNA gyrase cleavage assays were performed by incubating 250 ng of supercoiled pBR322 plasmid DNA (Inspiralis, Norwich, UK) with 25 nM of GyrBA59 protein in 20 µL reactions containing 35 mM Tris-HCl (pH 8.0), 24 mM KCl, 4 mM MgCl2, 2 mM DTT, 1.8 mM spermidine, 1.4 mM ATP, 6.5% (w/v) glycerol, and 0.1 mg mL^−1 bovine serum albumin in the presence or absence of various concentrations of albicidin (final concentration of 5% dimethyl sulfoxide (DMSO), incubation at 37 °C for 30 min). Linearized DNA was released by further incubation with 0.2% (w/v) SDS and 0.1 mg mL^−1 proteinase K (Promega, Madison, USA) at 37 °C for 30 min. The reaction was stopped by addition of 20 µL of reaction stop buffer (STEB buffer) (40% (w/v) sucrose, 100 mM Tris-HCl (pH 8.0), 10 mM EDTA, and 0.5 mg mL^−1 Bromophenol Blue) and precipitation using 30 µL of chloroform/isoamyl alcohol 24:1 (v:v). Samples were analyzed by electrophoresis in 1% w/v agarose gel containing 0.5 […] followed by photography under ultraviolet illumination.

[2] = target: T2, AlbAS (Klebsiella oxytoca, UniProt Q8KRS7); assay: Fluorescence quenching binding assay (tryptophan fluorescence) with AlbAS
T2 sequence (Q8KRS7 1-221): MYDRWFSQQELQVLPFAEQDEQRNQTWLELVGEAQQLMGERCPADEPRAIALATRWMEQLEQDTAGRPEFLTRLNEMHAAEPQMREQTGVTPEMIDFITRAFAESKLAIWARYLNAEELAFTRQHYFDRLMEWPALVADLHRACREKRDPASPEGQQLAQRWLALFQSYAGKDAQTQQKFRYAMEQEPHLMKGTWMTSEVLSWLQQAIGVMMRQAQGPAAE
Procedure: (§1) Fluorescence quenching measurements were performed by monitoring tryptophan fluorescence of AlbAS (20 nM), AlbAL (20 nM), AlbASNTD, and AlbASCTD (100 nM) on a FluoroMax 2 spectrometer from Horiba (Potsdam, Germany). The excitation wavelength was set to λexc = 280 nm. Emission spectra were recorded from λem = 290–450 nm with a scanning speed of 1 nm s^−1 and an integration time of 1 s. The excitation and emission slit widths were set to 8 and 4 nm, respectively. Proteins were solved in 50 mM sodium phosphate buffer with 150 mM NaCl and 0.01% DMSO at pH 6.8. All measurements were performed twice and the standard deviation is given for the Kd and the Hill factor n. Data evaluation was performed by integration of the emission band (318–410 nm for AlbAS, 316–412 nm for AlbAL, and 319–390 nm for AlbASNTD and AlbASCTD) for every titration step. The area under the curve (AUC) of the buffer blank (buffer with 0.01% DMSO) was subtracted from the measured titration data. The quenching factor was determined by subtraction of AUCs for each titration step from the AUC of the protein in the absence of ligand. For determination of the AlbAS– and AlbAL–albicidin Kd values, the data were fitted to Eq. (2).2 Y=Bmax[L]^n/Kdn+[L]^n where [L], n, and Bmax denote the total ligand concentration, the Hill coefficient, and the maximum binding capacity of the protein, respectively.
For the determination of the Kd for AlbAS–compound 7 the data were fitted to Eq. (3).3 Y=Pt+L+Kd-Pt+L+Kd^2-4PtL/2 where Pt is the total protein concentration.

[3] = target: AlbAL (Klebsiella oxytoca, UniProt A0A9P0U153); assay: Fluorescence quenching binding assay with AlbAL
Procedure: as §1

[4] = test system: Klebsiella pneumoniae; assay: MIC assay, clinical isolates; type: cell-based; conditions: seven Klebsiella pneumoniae strains
Procedure: The MIC assay was performed by Antiinfectives Intelligence GmbH (Rheinbach, Germany) using internationally standardized protocols and employing clinical isolates of K. oxytoca, K. pneumoniae, R. ornithologica, P. aeruginosa, A. baumannii and E. cloacae.

[5] = target: AlbASNTD (Klebsiella oxytoca, UniProt Q8KRS7); assay: Fluorescence quenching binding assay with AlbASNTD; conditions: AlbASNTD 100 nM, n constrained to 1
Procedure: as §1

[6] = target: DNA gyrase; parameters: method as in PMID 17074789; conditions: read-out: half maximal inhibitory concentration (IC50); cited from earlier work

AlbAL, sequence (A0A9P0U153 entry or part of it): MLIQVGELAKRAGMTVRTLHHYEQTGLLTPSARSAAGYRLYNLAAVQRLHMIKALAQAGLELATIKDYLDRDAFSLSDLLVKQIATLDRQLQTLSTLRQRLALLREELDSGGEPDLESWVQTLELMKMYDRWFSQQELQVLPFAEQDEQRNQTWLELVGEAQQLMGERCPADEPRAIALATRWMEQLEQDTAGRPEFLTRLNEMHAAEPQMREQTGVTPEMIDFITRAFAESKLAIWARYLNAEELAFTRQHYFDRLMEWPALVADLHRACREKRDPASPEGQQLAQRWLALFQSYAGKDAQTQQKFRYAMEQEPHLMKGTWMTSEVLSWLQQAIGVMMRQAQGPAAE
T1 sequence (P0AES4 whole entry, looked up, other chains not shown, the tested form may be a part): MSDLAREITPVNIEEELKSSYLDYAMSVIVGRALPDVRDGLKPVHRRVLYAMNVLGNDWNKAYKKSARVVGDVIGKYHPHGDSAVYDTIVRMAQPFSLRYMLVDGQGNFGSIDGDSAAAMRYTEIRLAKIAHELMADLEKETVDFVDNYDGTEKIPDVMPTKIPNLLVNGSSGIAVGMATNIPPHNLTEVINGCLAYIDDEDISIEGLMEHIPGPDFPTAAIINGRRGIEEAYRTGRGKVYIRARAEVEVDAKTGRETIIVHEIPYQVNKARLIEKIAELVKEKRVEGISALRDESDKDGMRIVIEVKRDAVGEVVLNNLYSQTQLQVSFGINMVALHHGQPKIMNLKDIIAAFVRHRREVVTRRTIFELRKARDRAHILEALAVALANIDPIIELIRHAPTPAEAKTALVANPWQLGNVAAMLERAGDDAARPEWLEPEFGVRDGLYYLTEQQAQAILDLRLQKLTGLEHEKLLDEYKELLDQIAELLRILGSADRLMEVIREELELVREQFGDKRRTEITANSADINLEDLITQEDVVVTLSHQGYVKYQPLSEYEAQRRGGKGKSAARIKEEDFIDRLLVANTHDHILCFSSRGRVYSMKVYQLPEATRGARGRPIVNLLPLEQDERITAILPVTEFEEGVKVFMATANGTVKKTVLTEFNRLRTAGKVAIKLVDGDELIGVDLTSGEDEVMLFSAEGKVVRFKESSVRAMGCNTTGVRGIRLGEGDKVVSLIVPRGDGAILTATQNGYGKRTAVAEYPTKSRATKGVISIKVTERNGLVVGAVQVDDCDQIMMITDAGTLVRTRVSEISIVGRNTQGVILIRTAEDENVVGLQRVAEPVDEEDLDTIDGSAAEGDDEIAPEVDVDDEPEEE

COc1c(NC(=O)c2ccc(NC(=O)c3ccc(NC(=O)[C@H](CC#N)NC(=O)c4ccc(NC(=O)/C(C)=C/c5ccc(O)cc5)cc4)cc3)c(OC)c2O)ccc(C(=O)O)c1O [albicidin]
stabilization of DNA cleavage complex (in words) [1]: stabilizing the cleavage complex
Hill coefficient, n ([2]; AlbAS 20 nM, fluorescence quenching): 3.0 ± 0.5
Kd ([2]; AlbAS 20 nM, fluorescence quenching, pH 6.8): ≤ 5.6 nM and 5.6 nM
quenching of AlbAS emission ([2]; maximal quenching by ligand): 100%
Kd [3]: 7.4 ± 0.9 nM
Hill coefficient, n ([3]; AlbAL 20 nM, fluorescence quenching): 2.0 ± 0.2
MIC [4]: ≥ 64 µg/mL
Kd [5]: 3400 ± 200 nM
IC50 [6]: 40 nM
